Test results: publication PMC7923228, “Phosphoinositide 3-Kinase (PI3K) Reactive Oxygen Species (ROS)-Activated Prodrug in Combination with Anthracycline Impairs PI3K Signaling, Increases DNA Damage Response and Reduces Breast Cancer Cell Growth” (International Journal of Molecular Sciences, 2021)
Values joined by “and” are separate entries in the source; they are usually repeats but may differ in a detail not shown here. Identical values can stand only once. Like-named read-outs stand apart in the source and are kept apart here.

Tests used:
MDA-MB-361 cells [1] = tested on: MDA-MB-361 cells
Method: (§1) Growth kinetics of fibroblasts, MCF10A, MDA-MB-231, MDA-MB-361 and MDA-MB-453 cells was determined by the 4,5-dimethylthiazol-2-yl)-2,5-diphenyltetrazolium bromide (MTT) assay. Briefly, 2 × 10^4 cells/well were seeded in 96 well plates in triplicate. […] MDA-MB-231 cells were treated with 500–5000 nM, MDA-MB-361 with 50–450 nM and MDA-MB-453 with 100–4000 nM of doxorubicin for 72 h. […] MDA-MB-231 cells were treated with 50–50,000 pM docetaxel. MDA-MB-361 cells were treated with 10–90 nM of docetaxel. MDA-MB-453 cells were subjected 50–10,000 pM of docetaxel. The cell proliferation was analyzed after 72 h and represented as mean of triplicate values relative to DMSO control.

[2] = tested on: p-AKT, p-P53, p-CHK1, p-CHK2 in MDA-MB-231, MDA-MB-361 and MDA-MB-453 cells; format: cell-based, Human; settings: for phosphorylation of AKT at Thr308: data not shown; for phosphorylation of CHK2 at T68: most notably in MDA-MB-361 and MDA-MB-453 versus vehicle control, 24 h
Text: Cells were lysed in RIPA buffer (Thermo Fisher Scientific, Waltham, MA, USA, Cat#BP-115) supplemented with protease and phosphatase inhibitors (Thermo Fisher Scientific, Cat#88669). […] Peroxidase-conjugated secondary antibodies (Santa Cruz Biotechnology) were used and protein signals were detected using Pierce ECL western blotting substrate (Thermo Fisher Scientific, Cat# 32106).

MDA-MB-361 cells [3] = experiment: cells; settings: Homo sapiens, MDA-MB-361, 72 h
Method: as §1

MDA-MB-231 cells [4] = experiment: MTT cell viability assay, 72 h
Method: as §1

MDA-MB-231 cells [5] = tested on: MDA-MB-231 cells
Method: as §1

MDA-MB-453 cells [6] = experiment: MTT cell viability assay, 72 h
Method: as §1

MDA-MB-453 cells [7] = tested on: MDA-MB-453 cells
Method: as §1

[8] = tested on: MCF10A, MDA-MB-231, MDA-MB-361 and MDA-MB-453 cells; experiment: Intracellular ROS, DCFDA assay; format: cell-based; settings: 125 nM, 30 min
Method: The cells were resuspended in dichlorodihydrofluorescein diacetate (DCFH-DA) for 30 min […] using the CellQuest software v4.0.1 (Becton Dickinson and Company, Franklin Lakes, NJ, USA) to measure the ROS levels. The DCFH-DA levels were measured using a SPECTRAmax PLUS Microplate Spectrophotometer Plate Reader (Molecular Devices Corporation).

NH fibroblasts = experiment: cells; format: cell-based
PI3Kɣ = tested on: PI3Kɣ; set-up: method as in PMID 19584227; settings: read-out: IC50 against PI3Kɣ; cited from earlier work
MCF10A cells = experiment: cells; format: cell-based; settings: for IC50: 72 h MTT
Method: as §1

[9] = tested on: PIK3CA-mutated, hormone receptor (HR)-positive, HER2-negative advanced breast cancer; set-up: method as in PMID 31091374; settings: cited from earlier work
[10] = tested on: MDA-MB-231, MDA-MB-361 and MDA-MB-453 cells; experiment: MTT cell viability assay, combination treatments, 72 h; format: cell-based, Human
Method: as §1

COc1cccc2c1C(=O)c1c(O)c3c(c(O)c1C2=O)C[C@@](O)(C(=O)CO)C[C@@H]3O[C@H]1C[C@H](N)[C@H](O)[C@H](C)O1 [Doxorubicin]
IC50 (MDA-MB-361 cells [1]): 111 nM and 110 nM and 73.2 nM | p53 phosphorylation at Ser15 [2]: didn’t observe p53 post-translational modification activation | phosphorylation of AKT at Thr308 [2]: no effect | phosphorylation of CHK2 at T68 [2]: increased phosphorylation | IC50 (MDA-MB-361 cells [3]; read-out: IC50 (MDA-MB-361)): 116 nM | IC50 (MDA-MB-231 cells [4]; Homo sapiens, MDA-MB-231, 72 h, read-out: IC50 (MDA-MB-231)): 405 nM | IC50 (MDA-MB-231 cells [5]): 185 nM and 146 nM | IC50 (MDA-MB-453 cells [6]; Homo sapiens, MDA-MB-453, 72 h, read-out: IC50 (MDA-MB-453)): 578 nM | IC50 (MDA-MB-453 cells [7]): 530 nM and 516 nM and 478 nM | ROS levels [8]: induced ROS

CC(=O)N[C@@H](CS)C(=O)O [NAC, N-Acetyl Cysteine]
rescue of antiproliferative effects of RIDR-PI-103 and doxorubicin (MDA-MB-231 cells [4]; MDA-MB-231, 10 mM NAC, 125 nM doxorubicin ± 30 µM RIDR-PI-103, 24 hour): rescued the antiproliferative effects

Oc1cccc(-c2nc(N3CCOCC3)c3oc4ncccc4c3n2)c1 [PI-103, 3-(4-morpholinopyrido[3′,2′:4,5]furo[3,2-d]pyrimidin-2-yl)phenol]
IC50 (MDA-MB-361 cells [3]): 1700 nM | IC50 (NH fibroblasts; Fibroblast, fibroblasts, 72 h MTT): 3900 nM | IC50 (PI3Kɣ): 15 nM | IC50 (MCF10A cells; Homo sapiens, MCF-10A): 3800 nM | IC50 (MDA-MB-453 cells [6]; Homo sapiens, MDA-MB-453, 72 h): 820 nM

Cc1nc(NC(=O)N2CCC[C@H]2C(N)=O)sc1-c1ccnc(C(C)(C)C(F)(F)F)c1 [alpelisib, Alpelisib]
improvement of progression-free survival compared with fulvestrant alone ([9]; alpelisib in combination with fulvestrant, patients who had received endocrine therapy previously): about 5 months | adverse events ([9]; patients receiving alpelisib): high risk of hyperglycemia-related adverse events

CC(=O)O[C@@]12CO[C@@H]1C[C@H](O)[C@@]1(C)C(=O)[C@H](O)C3=C(C)[C@@H](OC(=O)[C@H](O)[C@@H](NC(=O)OC(C)(C)C)c4ccccc4)C[C@@](O)([C@@H](OC(=O)c4ccccc4)[C@H]21)C3(C)C [docetaxel]
suppression of breast cancer cell growth in combination with RIDR-PI-103 ([10]; docetaxel + 10, 15 or 30 µM RIDR-PI-103, 72 h): less effective

ROS-induced drug release 3-(4-morpholinopyrido[3′,2′:4,5]furo[3,2-d]pyrimidin-2-yl)phenol [RIDR-PI-103]
IC50 (MDA-MB-361 cells [1]; MDA-MB-361, 72 h MTT): 43000 nM | phosphorylation of AKT at Thr308 [2]: no effect | phosphorylation of CHK2 at T68 [2]: increased phosphorylation | effect on cytotoxicity of doxorubicin ([10]; 10, 15 and 30 µM RIDR-PI-103, MDA-MB-231, MDA-MB-361 and MDA-MB-453): enhances the cytotoxicity | growth inhibition ([10]; three breast cancer cell lines, 50 µM or greater, 72 h): showed growth inhibition | response to treatment (growth) (NH fibroblasts; normal fibroblasts, 50 µM or greater, 72 h): did not respond appreciably | IC50 (MDA-MB-231 cells [4]; MDA-MB-231, 72 h MTT): 47300 nM | response to treatment (growth) (MCF10A cells; 50 µM or greater, 72 h): did not respond appreciably | IC50 (MCF10A cells): 78600 nM | IC50 (MDA-MB-453 cells [6]; MDA-MB-453, 72 h MTT): 49000 nM and 49100 nM
